Laboratory results published in patent publication US20090004474A1, “Lyocell fibers with anti-microbial activity” (Weyerhaeuser Co., priority 2007, published 2009).

Experiments:
E coli = experiment: Growth medium study, antimicrobial test of meltblown fibers against E. coli; format: cell-based; conditions: compared to a control at the same time; for reduction of E. coli colony forming units at twenty four hours compared to a control: 24 hours
Description: E. coli: Prep Culti-Loop in 1.0 ml sterile TSB for 10 min.
ATCC 8739 Streak to TSA slant and grow for 24 hours @ 35 C
For S. aureus and E. coli, make 1:100 dilution of stock culture solution, and add 1.0 ml of the diluted solution to 1.0 liter of MGM.
S. aureus: 94.4 ml stock PBS+849.6 DI water; adjust pH & sterilize. (or 994 ml pre-diluted PBS Stock solution). (2X+2)200=2000 ml for 4. • ADD: 1.0 ml MSM • 50 ml BME vitamins. • 5 ml 1% Peptone. • 1.0 ml diluted Bacterial Culture (pre-made) • b. E. coli: 94.9 ml stock PBS+854.1 ml DI water; adjust pH & sterilize. (or 949 ml pre-diluted PBS Stock solution). (2X+2)200=2000 ml for 4. • ADD: 1.0 ml MSM • 50 ml BME vitamins. • 1.0 ml diluted Bacterial Culture (pre-made) • c. C. albicans: 92.9 ml stock PBS+836.1 ml DI water; adjust pH & sterilize. (or 929 ml pre-diluted PBS Stock solution). (2X+2)200=2000 ml for 4. • ADD: 1.0 ml MSM • 50 ml BME vitamins. • 20 ml 10% Peptone. • 10 ml 10% (NH4)2SO4 • 1.0 ml of Undiluted Bacterial Culture (pre-made) 7. Product to test:
Prep enough sterile 250 Plastic Bottles to handle 2 repetitions of each organism plus pos. and neg. control. (45 flasks are needed to test 6 products.) • B. Label all Plastic Bottles with organism (Staph, E. coli, C alb.), plus Sequential Number (W-1,W-2 . . . , W-45). • c. Add 2.0 gm of each product to be tested to each Plastic Bottle (or a sterile blender if Sample is not soft), then add 200 ml of inoculated MGM. Incubate, with shaking (in wire milk case—attached to shaker waterbath—plus one or two plastic cases) for 4 and 24 hours at 37 C Run duplicate tests. […] Run two bottles for each organism containing 200 ml of inoculated MGM, without Weyerhaeuser Sample. These are Blanks. • f. Run positive controls, TSB in place of Sample (see below) for each organism type. […] Incubation and counting. • a. […]

C. Albicans = experiment: Growth medium study, antimicrobial test of meltblown fibers against C. albicans; format: cell-based; conditions: compared to a control at the same time
Description: Growth Medium Study Procedure
C. albicans: Prep Culti-Loop in 1.0 ml of sterile dilute PBS
ATCC 10231 Solution for 10 min. Streak onto SDA and grow for 24 hours @ 35 C
a. Prepare 9.0 ml dilute PBS tubes. Remove (wash) each culture organism from slants and add to PBS tubes.
Adjust so the turbidity of the culture matches a 0.5 McFarland solution (In BAM Media Pages). This is the stock culture solution. (S. aureus & E. coli, C. albicans.)
c. For C. albicans add 1.0 ml stock culture solution to 1.0 liter of MGM. (about […] final population)
6. Specialized MGM solutions for each Organism: • a. S. aureus: 94.4 ml stock PBS+849.6 DI water; adjust pH & sterilize. (or […] pre-diluted PBS Stock solution). (2X+2)200=2000 ml for 4. • ADD: 1.0 ml MSM • 50 ml BME vitamins. • 5 ml 1% Peptone. • 1.0 ml diluted Bacterial Culture (pre-made) • b. E. coli: 94.9 ml stock PBS+854.1 ml DI water; adjust pH & sterilize. (or 949 ml pre-diluted PBS Stock solution). (2X+2)200=2000 ml for 4. • ADD: 1.0 ml MSM • 50 ml BME vitamins. • 1.0 ml diluted Bacterial Culture (pre-made) • c. C. albicans: 92.9 ml stock PBS+836.1 ml DI water; adjust pH & sterilize. (or 929 ml pre-diluted PBS Stock solution). (2X+2)200=2000 ml for 4. • ADD: 1.0 ml MSM • 50 ml BME vitamins. • 20 ml 10% Peptone. • 10 ml 10% (NH4)2SO4 • 1.0 ml of Undiluted Bacterial Culture (pre-made) 7. Product to test:
a. […]

## [O]=[Zn] [Zinc oxide]
E coli
  reduction of E. coli colony forming units at twenty four hours compared to a control: at least ninety five
C. Albicans; 4 hours
  reduction of C. albicans count at four hours compared to a control: at least ninety five
C. Albicans; 24 hours
  reduction of C. albicans count at twenty four hours compared to a control: at least ninety five

## O=C([O-])[O-].[Ca+2] [calcium carbonate, Calcium carbonate]
E coli; 4 hours
  reduction of E. coli colony forming units at four hours compared to a control: more than ninety five
E coli
  reduction of E. coli colony forming units at twenty four hours compared to a control: more than ninety five
